Reference: US20050209157A1, “Short bioactive peptides and methods for their use” (priority 2001, published 2005)
In brackets after ≈: the same amount, converted by molar mass. Like-named read-outs stand apart in the source and are kept apart here. No end group written: not given here.

Experiments:
E. coli UB1005 = format: cell-based, Escherichia coli; conditions: Table 12
S. typhimurium 14028S = format: cell-based, Salmonella typhimurium; conditions: Table 12
Candida albicans 105 = format: cell-based; conditions: Table 13; in µg/mL
[1] = system: Pseudomonas aeruginosa H187; format: cell-based; conditions: in µg/mL
[2] = system: Candida glabrata ATCC15126; test: Antimicrobial assays II, NCCLS broth microdilution MIC; format: cell-based; conditions: Table 13; in µg/mL
[3] = system: Pseudomonas aeruginosa 105663; format: cell-based; conditions: Table 9; in µg/mL
[4] = system: Pseudomonas aeruginosa 100609; format: cell-based; conditions: Table 9; in µg/mL
S. epidermidis C621 = format: cell-based, Staphylococcus epidermidis; conditions: Table 13; in µg/mL
S. aureus (MRSA) = format: cell-based, Staphylococcus aureus; conditions: Table 13, strain SAP0017; in µg/mL
P. aeruginosa H374 = format: cell-based, Pseudomonas aeruginosa; conditions: in µg/mL

In the case of FAKKLAKKLL-NH2 [P59 (39)], the MIC E. coli UB1005 (E. coli UB1005) is reported as 8 µg/mL, the MIC S. typhimurium 14028S (S. typhimurium 14028S) is reported as 8 µg/mL and the “MIC C. albicans 105” value (Candida albicans 105) is reported as 32. The “MIC P. aeruginosa H187” value ([1]; Table 9) was 8, the “MIC P. aeruginosa H187” value ([1]; Table 12) was 8 and the “MIC C. glabrata ATCC15126” value [2] was 16. The “MIC P. aeruginosa Tb 105663” value [3] was 8, the “MIC P. aeruginosa Tb 100609” value [4] was 8 and the “MIC S. epidermis C621” value (S. epidermidis C621) was 8. The “MIC S. aureus SAP0017” value (S. aureus (MRSA)) was 8, the “MIC P. aeruginosa H374” value (P. aeruginosa H374; Table 9) was 8 and the “MIC P. aeruginosa H374” value (P. aeruginosa H374; Table 12) was 8.

`CC(C)C[C@H](NC(=O)[C@H](C)NC(=O)[C@H](CC(C)C)NC(=O)[C@H](CCCCN)NC(=O)[C@H](C)NC(=O)[C@H](CC(C)C)NC(=O)[C@H](CCCCN)NC(=O)[C@H](CCCCN)NC(=O)[C@H](C)NC(=O)[C@H](CC(C)C)NC(=O)[C@H](CCCCN)NC(=O)[C@H](C)NC(=O)[C@H](CC(C)C)NC(=O)[C@H](CCCCN)NC(=O)[C@H](CCCCN)NC(=O)[C@H](C)NC(=O)[C@@H](N)Cc1ccccc1)C(N)=O` [P35 (17)] was tested, and the MIC E. coli UB1005 (E. coli UB1005) was 2 µg/mL (≈ 1.08 µM), the MIC S. typhimurium 14028S (S. typhimurium 14028S) was 4 µg/mL (≈ 2.16 µM) and the “MIC C. albicans 105” value (Candida albicans 105) was 32. The “MIC P. aeruginosa H187” value ([1]; Table 9) was 8, the “MIC P. aeruginosa H187” value ([1]; Table 12) was 8 and the “MIC C. glabrata ATCC15126” value [2] was 16. For the same compound, the “MIC P. aeruginosa Tb 105663” value [3] was 4, the “MIC P. aeruginosa Tb 100609” value [4] was 4 and the “MIC S. epidermis C621” value (S. epidermidis C621) was 4. The “MIC S. aureus SAP0017” value (S. aureus (MRSA)) was 8, the “MIC P. aeruginosa H374” value (P. aeruginosa H374; Table 9) was 8 and the “MIC P. aeruginosa H374” value (P. aeruginosa H374; Table 12) was 8.

With FALLKALLKKAL-NH2 [P177 (138)] the MIC E. coli UB1005 (E. coli UB1005) was 8 µg/mL, the MIC S. typhimurium 14028S (S. typhimurium 14028S) was 16 µg/mL and the “MIC C. albicans 105” value (Candida albicans 105) was 16. For the same compound, the “MIC P. aeruginosa H187” value ([1]; Table 9) was 16, the “MIC P. aeruginosa H187” value ([1]; Table 12) was 16 and the “MIC C. glabrata ATCC15126” value [2] was 16. For the same compound, the “MIC P. aeruginosa Tb 105663” value [3] was 32, the “MIC P. aeruginosa Tb 100609” value [4] was 32 and the “MIC S. epidermis C621” value (S. epidermidis C621) was 4. For the same compound, the “MIC S. aureus SAP0017” value (S. aureus (MRSA)) was 8, the “MIC P. aeruginosa H374” value (P. aeruginosa H374; Table 9) was 16 and the “MIC P. aeruginosa H374” value (P. aeruginosa H374; Table 12) was 16.

With FAKLLAKALKKFAL-NH2 [P119 (81)] the MIC E. coli UB1005 (E. coli UB1005) was 4 µg/mL, the MIC S. typhimurium 14028S (S. typhimurium 14028S) was 8 µg/mL and the “MIC C. albicans 105” value (Candida albicans 105) was 16. The “MIC P. aeruginosa H187” value ([1]; Table 9) was 16, the “MIC P. aeruginosa H187” value ([1]; Table 12) was 16 and the “MIC C. glabrata ATCC15126” value [2] was 16. For the same compound, the “MIC P. aeruginosa Tb 105663” value [3] was 16, the “MIC P. aeruginosa Tb 100609” value [4] was 16 and the “MIC S. epidermis C621” value (S. epidermidis C621) was 4. The “MIC S. aureus SAP0017” value (S. aureus (MRSA)) was 8, the “MIC P. aeruginosa H374” value (P. aeruginosa H374; Table 9) was 8 and the “MIC P. aeruginosa H374” value (P. aeruginosa H374; Table 12) was 8.

With FAKLLAKALKKLL-NH2 [P55 (35)] the MIC E. coli UB1005 (E. coli UB1005) was 4 µg/mL, the MIC S. typhimurium 14028S (S. typhimurium 14028S) was 4 µg/mL and the “MIC C. albicans 105” value (Candida albicans 105) was 16. The “MIC P. aeruginosa H187” value ([1]; Table 9) was 8, the “MIC P. aeruginosa H187” value ([1]; Table 12) was 8 and the “MIC C. glabrata ATCC15126” value [2] was 8. The “MIC P. aeruginosa Tb 105663” value [3] was 16, the “MIC P. aeruginosa Tb 100609” value [4] was 8 and the “MIC S. epidermis C621” value (S. epidermidis C621) was 2. For the same compound, the “MIC S. aureus SAP0017” value (S. aureus (MRSA)) was 4, the “MIC P. aeruginosa H374” value (P. aeruginosa H374; Table 9) was 8 and the “MIC P. aeruginosa H374” value (P. aeruginosa H374; Table 12) was 8.

With FAKKLAKKLKKLAKKLAKKWKL-OH [P72 (48)] the MIC E. coli UB1005 (E. coli UB1005) was 2 µg/mL, the MIC S. typhimurium 14028S (S. typhimurium 14028S) was 8 µg/mL and the “MIC C. albicans 105” value (Candida albicans 105) was 32. For the same compound, the “MIC P. aeruginosa H187” value ([1]; Table 9) was 8, the “MIC P. aeruginosa H187” value ([1]; Table 12) was 8 and the “MIC C. glabrata ATCC15126” value [2] was 64. For the same compound, the “MIC P. aeruginosa Tb 105663” value [3] was 8, the “MIC P. aeruginosa Tb 100609” value [4] was 8 and the “MIC S. epidermis C621” value (S. epidermidis C621) was 4. The “MIC S. aureus SAP0017” value (S. aureus (MRSA)) was 16, the “MIC P. aeruginosa H374” value (P. aeruginosa H374; Table 9) was 4 and the “MIC P. aeruginosa H374” value (P. aeruginosa H374; Table 12) was 4.

`CC(C)C[C@H](NC(=O)[C@H](C)NC(=O)[C@H](CC(C)C)NC(=O)[C@H](C)NC(=O)[C@H](CC(C)C)NC(=O)[C@H](CCCCN)NC(=O)[C@H](C)NC(=O)[C@H](CC(C)C)NC(=O)[C@H](CCCCN)NC(=O)[C@H](CCCCN)NC(=O)[C@H](C)NC(=O)[C@H](CC(C)C)NC(=O)[C@H](CCCCN)NC(=O)[C@H](C)NC(=O)[C@H](CC(C)C)NC(=O)[C@H](CCCCN)NC(=O)[C@H](CCCCN)NC(=O)[C@H](C)NC(=O)[C@@H](N)C(C)C)C(N)=O` [P504 (155)] was tested, and the MIC E. coli UB1005 (E. coli UB1005) was 4 µg/mL (≈ 2.01 µM), the MIC S. typhimurium 14028S (S. typhimurium 14028S) was 4 µg/mL (≈ 2.01 µM) and the “MIC C. albicans 105” value (Candida albicans 105) was 64. For the same compound, the “MIC P. aeruginosa H187” value ([1]; Table 9) was 8, the “MIC P. aeruginosa H187” value ([1]; Table 12) was 8 and the “MIC C. glabrata ATCC15126” value [2] was 64. The “MIC P. aeruginosa Tb 105663” value [3] was 16, the “MIC P. aeruginosa Tb 100609” value [4] was 8 and the “MIC S. epidermis C621” value (S. epidermidis C621) was 4. The “MIC S. aureus SAP0017” value (S. aureus (MRSA)) was 4, the “MIC P. aeruginosa H374” value (P. aeruginosa H374; Table 9) was 8 and the “MIC P. aeruginosa H374” value (P. aeruginosa H374; Table 12) was 8.

With FAKLLAKLAKKLL-NH2 [P43 (25)] the MIC E. coli UB1005 (E. coli UB1005) was 8 µg/mL, the MIC S. typhimurium 14028S (S. typhimurium 14028S) was 8 µg/mL and the “MIC C. albicans 105” value (Candida albicans 105) was 8. The “MIC P. aeruginosa H187” value ([1]; Table 9) was 8, the “MIC P. aeruginosa H187” value ([1]; Table 12) was 8 and the “MIC C. glabrata ATCC15126” value [2] was 16. The “MIC P. aeruginosa Tb 105663” value [3] was 8, the “MIC P. aeruginosa Tb 100609” value [4] was 8 and the “MIC S. epidermis C621” value (S. epidermidis C621) was 2. For the same compound, the “MIC S. aureus SAP0017” value (S. aureus (MRSA)) was 4, the “MIC P. aeruginosa H374” value (P. aeruginosa H374; Table 9) was 8 and the “MIC P. aeruginosa H374” value (P. aeruginosa H374; Table 12) was 8.

FAKKLAKLALKLAKL-NH2 [P44 (26)] was tested, and the MIC E. coli UB1005 (E. coli UB1005) was 1 µg/mL, the MIC S. typhimurium 14028S (S. typhimurium 14028S) was 4 µg/mL and the “MIC C. albicans 105” value (Candida albicans 105) was 8. For the same compound, the “MIC P. aeruginosa H187” value ([1]; Table 9) was 8, the “MIC P. aeruginosa H187” value ([1]; Table 12) was 8 and the “MIC C. glabrata ATCC15126” value [2] was 16. For the same compound, the “MIC P. aeruginosa Tb 105663” value [3] was 16, the “MIC P. aeruginosa Tb 100609” value [4] was 8 and the “MIC S. epidermis C621” value (S. epidermidis C621) was 4. For the same compound, the “MIC S. aureus SAP0017” value (S. aureus (MRSA)) was 8, the “MIC P. aeruginosa H374” value (P. aeruginosa H374; Table 9) was 8 and the “MIC P. aeruginosa H374” value (P. aeruginosa H374; Table 12) was 8.

For FAKFLAKFLKKAL-NH2 [P111 (75)], the MIC E. coli UB1005 (E. coli UB1005) was 16 µg/mL, the MIC S. typhimurium 14028S (S. typhimurium 14028S) was 16 µg/mL and the “MIC C. albicans 105” value (Candida albicans 105) was 32. For the same compound, the “MIC P. aeruginosa H187” value ([1]; Table 9) was 8, the “MIC P. aeruginosa H187” value ([1]; Table 12) was 8 and the “MIC C. glabrata ATCC15126” value [2] was 32. For the same compound, the “MIC P. aeruginosa Tb 105663” value [3] was 32, the “MIC P. aeruginosa Tb 100609” value [4] was 16 and the “MIC S. epidermis C621” value (S. epidermidis C621) was 4. For the same compound, the “MIC S. aureus SAP0017” value (S. aureus (MRSA)) was 8, the “MIC P. aeruginosa H374” value (P. aeruginosa H374; Table 9) was 8 and the “MIC P. aeruginosa H374” value (P. aeruginosa H374; Table 12) was 8.
